“And” between values parts separate entries of the source, which are not always exact repeats. Equal values may be shown once.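 In this assay, cells in 96-well plates receive the compound at five concentrations for 48 hours. Endpoints are linearly interpolated between the surrounding concentrations. GI50 = concentration required for 50% inhibition of growth. TGI: total growth inhibition.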

The text below walks through data of PubChem BioAssay (NCI).

Holding throughout (assay): inhibition of tumour cell growth, NCI panel, 48 h
Assay [1] has as its system HOP-92 NSCLC.
Assay [2] concerns SN12C renal.
Assay [3] relates to UACC-257 melanoma.
The subject of assay [4] is T-47D breast.
In assay [5] the test system is A549 NSCLC.
Assay [6] has as its system SNB-19 CNS.
For assay [7], the system named is SR leukemia.
Assay [8] deals with NCI-H226 lung.
The test system of assay [9] is RXF 393 renal.
Assay [10] relates to SK-OV-3 ovarian.

On to `N=C1C(c2nc3ccccc3s2)=C(O)CN1c1cc(C(F)(F)F)ccc1Cl`, for which the GI50 in assay [1] is 7.69 µM; in [2], 15.5 µM; in assay [3], 7.65 µM; in assay [4], 48.1 µM; in [5], 21.1 µM; in assay [6], 60.6 µM. Moreover, the GI50 in [7] is 1.81 µM; in [8], 2.75 µM; in [9], 18 µM; in [10], 51.4 µM. The TGI is 98.1 µM in assay [1]; 69.6 µM in assay [2]; 46.1 µM in [3]; > 100 µM in assay [4]; > 100 µM in assay [5]; > 100 µM in assay [6]. Also, the TGI is 4.91 µM in assay [7], 28.5 µM in [8], > 100 µM in [9] and > 100 µM in assay [10].
Turning to `Cc1cn(C2CC(N(O)Cc3ccccc3)C(CO[Si](C)(C)C(C)(C)C)O2)c(=O)[nH]c1=O` (centres undefined), the TGI in assay [1] was 36.8 µM and 29.6 µM; in [2] it was 30.6 µM and 29.7 µM; in assay [3], 67.5 µM and 30 µM; in assay [4], > 100 µM and 33.6 µM; in assay [5], > 100 µM and 31.5 µM; in assay [6] it was > 100 µM and 33.2 µM. In addition, the TGI was 89.4 µM in assay [7]; 35.6 µM and 36.9 µM in [8]; 26.8 µM in assay [9]; > 100 µM and 30.1 µM in assay [10]. Further, the GI50 in [4] is 61.7 µM and 18.6 µM; in [5], 35.8 µM and 16.7 µM; in [10], 62 µM and 16.5 µM.
As for `COc1cc2c(c(OC)c1OC)-c1ccc(OC)c(=O)cc1[C@@H](NC(=O)c1ccccc1)CC2`, the TGI was 6.68 µM in assay [1]; 30 µM and > 81.5 µM in assay [2]; 30 µM and > 100 µM in assay [3]; > 100 µM in [4]; 30 µM and > 100 µM in assay [5]; 30 µM and 46.3 µM in assay [6]. Also, the TGI in assay [7] is > 100 µM; in assay [8], 1.89 µM; in assay [9] it was 8.22 µM and 3.18 µM. The GI50 in assay [2] was < 0.003 µM; in [3], 24.2 µM; in assay [4], > 30 µM; in assay [5], < 0.003 µM; in [6], < 0.003 µM and 0.0157 µM; in [9] it was < 0.003 µM. In addition, the GI50 in assay [10] was < 0.003 µM.
Take `COC(=O)C1=CNC=C(C(=O)OC)C1C1=CC(=O)C(C)=CC1=O`: the GI50 is 4.65 µM in assay [1]; 13 µM in assay [2]; 16.4 µM in assay [3]; 17.9 µM in assay [4]; 19.6 µM in [5]; 18.5 µM in [6]. For the same compound, the GI50 in assay [7] is 9.37 µM; in assay [8], 5.35 µM; in assay [9], 31.1 µM; in assay [10], 17.6 µM. Besides, the TGI in assay [1] was found to be 15.6 µM; in assay [2], 25.8 µM; in assay [3], 31.1 µM; in [4], 44.6 µM; in assay [5], 42.1 µM; in assay [6], 36.7 µM. In addition, the TGI in assay [7] is 43.5 µM; in assay [8], 17.2 µM; in [9], > 54.2 µM; in [10], 37.3 µM.
With `COC(=O)[C@@H](C)CNS(=O)(=O)N(c1cc(C(F)(F)F)cc(C(F)(F)F)c1)C1CCN(Cc2ccc(F)cc2)CC1`, the GI50 in assay [1] was 5.76 µM; in assay [2], 4.69 µM; in assay [3] it was 16.4 µM; in assay [4] it was 5.34 µM; in [5], 14 µM; in [6] it was 13 µM. Besides, the GI50 is 3.81 µM in assay [7], 13.2 µM in assay [8], 10.6 µM in assay [9] and 15.5 µM in assay [10]. Further, the TGI in [1] was determined as 20 µM; in assay [2] it was 18.5 µM; in assay [3] it was 30.8 µM; in assay [4] it was 19.6 µM; in assay [5], 31 µM; in assay [6] it was 25.8 µM. Also, the TGI came out at 9.22 µM in assay [7], 30.2 µM in assay [8], 23.7 µM in assay [9] and 29 µM in [10].
Take `COc1ccccc1CNCCCN1C(=O)c2ccc3c4c(ccc(c24)C1=O)C(=O)N(CCCOCCCCOCCCN)C3=O`: the GI50 in assay [1] was 2.1 µM; in assay [2], 1.24 µM; in assay [3], 0.272 µM; in [4], 0.926 µM; in [5], 1.22 µM; in [6], 1.71 µM. Further, the GI50 in assay [7] is 0.348 µM; in assay [8], 1.56 µM; in assay [9], 0.771 µM; in assay [10] it was 2.35 µM. The TGI in [1] came to 4.61 µM; in assay [2], 2.78 µM; in assay [3], 0.892 µM; in assay [4], 3.34 µM; in assay [5] it was 2.82 µM; in [6], 4.87 µM. Further, the TGI amounted to 3.87 µM in assay [7], 3.02 µM in [8], 2.2 µM in assay [9] and 5.76 µM in assay [10].
Take `COC1=CC(=O)c2nc(-c3cccc(C)n3)[nH]c2C1=O`: the GI50 in [1] is 17.4 µM; in assay [2], 32.9 µM; in assay [3], 65.3 µM; in assay [4], 15.8 µM; in assay [5] it was 19.1 µM; in assay [6], 23.3 µM. Further, the GI50 was 30.6 µM in assay [7], 21.7 µM in assay [8], > 100 µM in [9] and 19.3 µM in assay [10]. Also, the TGI in assay [1] was 43.7 µM; in assay [2] it was > 100 µM; in assay [3], > 100 µM; in assay [4], 58.1 µM; in [5] it was 39.1 µM; in assay [6], 60.6 µM. In addition, the TGI in assay [7] was > 100 µM; in [8], 43.8 µM; in [9] it was > 100 µM; in assay [10], 35.7 µM.
Turning to `NS(=O)(=O)c1ccc(N=Nc2c(O)[nH]c3ccc(-c4cnco4)cc23)cc1`, the GI50 in [1], in assay [2], in assay [3], in assay [4], in assay [5] and in assay [6] was > 25 µM throughout. In addition, the GI50 was 4.99 µM in [7], > 25 µM in [8], > 19.6 µM in [9] and > 25 µM in assay [10]. Besides, the TGI in assay [1], in assay [2], in assay [3], in [4], in assay [5] and in [6] was > 25 µM throughout. Besides, the TGI in [7], in [8], in [9] and in assay [10] was > 25 µM throughout.
